pIC50: −log10 of the molar value.

One series deals with RAW264.7. Kind of series: Antiinflammatory activity in mouse RAW264.7 assessed as inhibition of LPS-stimulated NO production pretreated with LPS followed by compund addition by Griess reagent based microplate reader assay. The class given is functional, cell-based. The settings on record: Mus musculus, RAW264.7.
A further series relates to A549. Nature of the series: Antiproliferative activity against human A549 cells assessed as reduction in cell viability incubated for 48 hrs by CCK8 assay. The conditions noted are these: A549, 48 h. The format is functional, cell-based.
Series [1] in a line: Cytotoxicity against mouse RAW264.7 cells assessed as reduction in cell viability incubated for 48 hrs by CCK8 assay. The format is toxicity, cell-based.
The subject of a further series is SGC-7901. Kind of series: Antiproliferative activity against human SGC-7901 cells assessed as reduction in cell viability incubated for 48 hrs by CCK8 assay. The conditions noted are these: SGC-7901, 48 h. The class given is functional, cell-based.
Another series concerns HepG2. Kind of series: Antiproliferative activity against human HepG2 cells assessed as reduction in cell viability incubated for 48 hrs by CCK8 assay. The format is functional, cell-based. The settings on record: HepG2, 48 h.
Series [2] in a line: Cytotoxicity against human L02 cells assessed as reduction in cell viability incubated for 48 hrs by CCK8 assay. The format is toxicity, cell-based.
The next series deals with MCF7. Nature of the series: Antiproliferative activity against human MCF7 cells assessed as reduction in cell viability incubated for 48 hrs by CCK8 assay. The conditions noted are these: MCF7, 48 h. The class given is functional, cell-based.

Regarding `C[C@]12OC(=O)[C@@]3(O)CC[C@H]4[C@@H](C[C@@H](O)[C@]5(O)CC=CC(=O)[C@]45C)[C@@]45OC[C@H]6C(=O)O[C@@H]1C[C@@]6(CO)[C@H](C4=O)[C@]23O5`, the negative logarithm of the IC50 (pIC50) with RAW264.7 is 4.36; with A549 it was < 4.30; with SGC-7901, < 4.30; in the series with HepG2, < 4.30; in the series with MCF7 it was < 4.30. Also, the IC50 at 48 h in series [1] and in series [2] was > 50 µM each time.
As for `COC(=O)C(C)(O)[C@@]1(C)C[C@@H](O)[C@]2(C)OC(=O)[C@@]3(O)CC[C@H]4[C@@H](C[C@@H](O)[C@@]5(O)CC=CC(=O)[C@]45C)[C@]4(O)O[C@@]23[C@H]1C4=O` (some centres not stated), the pIC50 with RAW264.7 was 5.54; with A549 it was < 4.30; with SGC-7901, < 4.30; in the series with HepG2, < 4.30; in the series with MCF7, < 4.30. Further, the half-inhibitory concentration (IC50) at 48 h in series [1] and in series [2] was > 50 µM each time.
Regarding `C[C@]12C(=O)C=CCC1=CC[C@@H]1[C@@H]2[C@H]2C[C@]3(O)C(=O)O[C@@]4(C)[C@H]5C[C@@]6(C)[C@@H]7[C@@]2(O)[C@@]1(OC[C@H]6C(=O)O5)O[C@@]743`, the negative-log IC50 (pIC50) was 5.02 with RAW264.7; < 4.30 with A549; < 4.30 with SGC-7901; < 4.30 in the series with HepG2; < 4.30 in the series with MCF7. The IC50 at 48 h in series [1] and in series [2] was > 50 µM each time.
As for `C[C@@]12C[C@H]3OC(=O)[C@@H]1CO[C@@]14O[C@@]5([C@H]2C1=O)[C@@]3(C)OC(=O)[C@@]5(O)CC[C@H]1[C@H]4C[C@H](O)[C@]2(O)CC=CC(=O)[C@]12C`, the negative-log IC50 (pIC50) in the series with RAW264.7 was 4.36; in the series with A549 it was < 4.30; in the series on SGC-7901, < 4.30; in the series on HepG2, < 4.30; in the series on MCF7, < 4.30. The IC50 at 48 h in series [1] and in series [2] was > 50 µM throughout.
`CO[C@]12C=CCC(=O)[C@]1(C)[C@H]1CC[C@]3(O)C(=O)O[C@@]4(C)[C@H]5C[C@]6(C)[C@@H](CO[C@]7(O[C@@]43[C@H]6C7=O)[C@@H]1C[C@H]2O)C(=O)O5`: the pIC50 in the series with RAW264.7 is 4.62; in the series on A549, < 4.30; in the series with SGC-7901 it was < 4.30; in the series with HepG2, < 4.30; in the series with MCF7 it was < 4.30. Further, the IC50 at 48 h in series [1] and in series [2] was > 50 µM each time.
For `C[C@@]12C[C@H]3OC(=O)[C@@H]1CO[C@]14C(=O)O[C@@]5([C@H]21)[C@@]3(C)OC(=O)[C@@]5(O)CC[C@H]1[C@H]4CC[C@@]2(O)CC=CC(=O)[C@]12C`, the negative logarithm of the IC50 (pIC50) in the series with RAW264.7 was 4.10; in the series on A549, < 4.30; in the series on SGC-7901, < 4.30; in the series with HepG2 it was < 4.30; in the series with MCF7, < 4.30. Also, the half-maximal inhibitory concentration (IC50) at 48 h in series [1] and in series [2] was > 50 µM each time.
Turning to `C[C@@]12C[C@H]3OC(=O)[C@@H]1CO[C@@]14O[C@]56[C@H]2[C@]1(O)[C@H](C[C@]5(O)C(=O)O[C@@]36C)[C@H]1[C@H]4CC[C@]2(O)CC=CC(=O)[C@]12C`, the pIC50 in the series with RAW264.7 was 5.44; with A549, < 4.30; with SGC-7901, < 4.30; with HepG2, < 4.30; in the series on MCF7, < 4.30. Also, the half-maximal inhibitory concentration (IC50) at 48 h in series [1] and in series [2] was > 50 µM each time.
For the compound `C[C@@]12C[C@H]3OC(=O)[C@@H]1CO[C@@]14O[C@@]5([C@H]2C1=O)[C@@]3(C)OC(=O)[C@@]5(O)CC[C@H]1[C@H]4C[C@@H](O)[C@@]2(OC(=O)c3cccnc3)CC=CC(=O)[C@]12C`, the pIC50 in the series on RAW264.7 is 4.87; in the series on A549, < 4.30; with SGC-7901 it was < 4.30; with HepG2, < 4.30; with MCF7 it was < 4.30. Further, the half-maximal inhibitory concentration (IC50) at 48 h in series [1] and in series [2] was > 50 µM in each case.
In the case of `CNC(=N)NCCC[C@H](N)C(=O)OC`, the negative-log IC50 (pIC50) in the series on RAW264.7 is 4.37.

For the origin of these results see ChEMBL document CHEMBL5120881, “Silencing Tautomerization to Isolate Unstable Physalins from Physalis minima” (J Nat Prod, 2022).
